Reference: ChEMBL document CHEMBL1201862, “PubChem BioAssay data set” (2004)
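Tested at 5 concentrations; 48 h exposure; 96-well plates; endpoints linearly interpolated, else capped at highest concentration. Abbreviation: GI50, concentration required for 50% inhibition of growth.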 Activity calls are given as the source filed them. No stated cut-off is given here; in the data, active = GI50 up to about 1.1 µM and inactive = higher.

Key:
Test in all cases: NCI tumour cell line growth inhibition, 48 h
SK-OV-3 = tested on: SK-OV-3
RXF 393 = tested on: RXF 393
A549 = tested on: A549
ACHN = tested on: ACHN
Malme-3M = tested on: Malme-3M
SK-MEL-2 = tested on: SK-MEL-2
KM12 = tested on: KM12
MDA-N = tested on: MDA-N
OVCAR-3 = tested on: OVCAR-3
SK-MEL-28 = tested on: SK-MEL-28
BT-549 = tested on: BT-549
SF-268 = tested on: SF-268
OVCAR-8 = tested on: OVCAR-8
SF-295 = tested on: SF-295
T47D = tested on: T47D
MDA-MB-231 = tested on: MDA-MB-231
HCC 2998 = tested on: HCC 2998
786-0 = tested on: 786-0
HCT-15 = tested on: HCT-15
A498 = tested on: A498
SW-620 = tested on: SW-620
NCI/ADR-RES = tested on: NCI/ADR-RES
HCT-116 = tested on: HCT-116
SN12C = tested on: SN12C
IGROV-1 = tested on: IGROV-1
SNB-19 = tested on: SNB-19
OVCAR-5 = tested on: OVCAR-5
U-251 = tested on: U-251
K562 = tested on: K562
M14 = tested on: M14
SNB-75 = tested on: SNB-75
LOX IMVI = tested on: LOX IMVI
DU-145 = tested on: DU-145
NCI-H23 = tested on: NCI-H23
UO-31 = tested on: UO-31
HOP-92 = tested on: HOP-92
PC-3 = tested on: PC-3
UACC-257 = tested on: UACC-257
Hs-578T = tested on: Hs-578T
OVCAR-4 = tested on: OVCAR-4
SR = tested on: SR
HT-29 = tested on: HT-29
SK-MEL-5 = tested on: SK-MEL-5
MDA-MB-435 = tested on: MDA-MB-435
COLO 205 = tested on: COLO 205
NCI-H226 = tested on: NCI-H226
TK-10 = tested on: TK-10
EKVX = tested on: EKVX
NCI-H522 = tested on: NCI-H522
SF-539 = tested on: SF-539
RPMI-8226 = tested on: RPMI-8226
UACC-62 = tested on: UACC-62
HL-60 = tested on: HL-60
MCF7 = tested on: MCF7
HOP-62 = tested on: HOP-62
NCI-H460 = tested on: NCI-H460
CAKI-1 = tested on: CAKI-1
MOLT-4 = tested on: MOLT-4

Measured: GI50

CC(=O)O[C@@H]1C[C@]2(C(=O)c3ccccc3)C(=O)C(=O)S[C@]12c1ccccc1
32.9 µM: HCT-15
inactive: SK-OV-3 50 µM | RXF 393 25.9 µM | A549 55.8 µM | ACHN 62.2 µM | Malme-3M > 100 µM | SK-MEL-2 38.5 µM | KM12 41.1 µM | MDA-N 30 µM | OVCAR-3 69.8 µM | SK-MEL-28 58.3 µM | BT-549 44.1 µM | SF-268 34.4 µM | OVCAR-8 36.4 µM | SF-295 65.9 µM | T47D 28.3 µM | MDA-MB-231 58.1 µM | HCC 2998 26.7 µM | 786-0 35.5 µM | A498 40.2 µM | SW-620 31.6 µM | NCI/ADR-RES 41.6 µM | HCT-116 46.6 µM | SN12C 35.8 µM | IGROV-1 45.4 µM | SNB-19 39.8 µM | OVCAR-5 > 100 µM | U-251 31.3 µM | K562 24.8 µM | M14 38.4 µM | SNB-75 44 µM | LOX IMVI 34.3 µM | DU-145 51.8 µM | NCI-H23 45 µM | UO-31 42.8 µM | HOP-92 47.8 µM | PC-3 36.5 µM | UACC-257 55.8 µM | Hs-578T 39.5 µM | OVCAR-4 56.1 µM | SR 32.9 µM | HT-29 67.9 µM | SK-MEL-5 32.4 µM | MDA-MB-435 29.2 µM | COLO 205 38.3 µM | NCI-H226 52.6 µM | TK-10 55.7 µM | EKVX 52.2 µM | NCI-H522 29.6 µM | SF-539 24.2 µM | RPMI-8226 30.4 µM | UACC-62 39.7 µM | MCF7 30 µM | HOP-62 61 µM | NCI-H460 45.6 µM | CAKI-1 42.9 µM | MOLT-4 28.4 µM
active: HL-60 0.225 µM
